Test results from patent EP2545917B1, “NOVEL EP4 AGONIST” (Kaken Pharmaceutical Co., Ltd., priority 2010, dated 2011).

What was measured:
[1] = target: T1, Human IP (Homo sapiens, UniProt P43119); assay: Receptor affinity, tritium-labeled iloprost binding to membranes of transfected COS-7 cells; details: COS-7 cell membranes
T1 construct: expressed in transfected cells; host or cells: COS-7
Method: (§1) PG receptor affinity of compound F and compound J of the present invention was evaluated. Compound F used was one synthesized in Example 9, and compound J was prepared by separating and purifying the compound synthesized in Example 14 with a column (the same preparations were used in the following Examples). COS-7 cells were transfected with the genes of mouse EP4, human EP1-4 or human IP to overexpress the receptor and then the cell membranes were collected. As a labeled ligand, tritium-labeled PGE2 was used for EPs; tritium-labeled iloprost, for IP. The dissociation constant Kd value was obtained and inhibition constant Ki value of each test compound was determined in a conventional method. As a reference control, PGE2 was used for EPs; beraprost sodium (BPS), for IP.

[2] = target: T2, Human EP4 (Homo sapiens, UniProt P35408); assay: Receptor affinity, tritium-labeled PGE2 binding to membranes of transfected COS-7 cells
T2 construct: expressed in transfected cells; host or cells: COS-7
Method: (§2) COS-7 cells were transfected with the genes of mouse EP4, human EP1-4 or human IP to overexpress the receptor and then the cell membranes were collected. […] The dissociation constant Kd value was obtained and inhibition constant Ki value of each test compound was determined in a conventional method.

[3] = target: T3, Human EP3 (Homo sapiens, UniProt P43115); assay: as above
T3 construct: expressed in transfected cells; host or cells: COS-7
T3 sequence (P43115 1-390): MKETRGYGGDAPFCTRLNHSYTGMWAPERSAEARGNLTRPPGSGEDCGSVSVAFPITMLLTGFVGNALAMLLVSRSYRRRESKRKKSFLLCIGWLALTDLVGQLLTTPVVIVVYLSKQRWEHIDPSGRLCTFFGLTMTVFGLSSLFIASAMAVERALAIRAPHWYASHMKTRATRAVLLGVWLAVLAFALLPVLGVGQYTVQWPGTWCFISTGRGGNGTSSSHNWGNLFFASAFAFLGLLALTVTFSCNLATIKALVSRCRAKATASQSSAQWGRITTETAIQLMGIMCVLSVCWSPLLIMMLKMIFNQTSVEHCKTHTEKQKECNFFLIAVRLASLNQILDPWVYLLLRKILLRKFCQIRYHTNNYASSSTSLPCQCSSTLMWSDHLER
Method: as §2

[4] = test system: CD4+CD25- T cell transfer colitis; assay: Prophylactic effect on CD4+CD25- T cell transfer colitis model in mice; type: in vivo, C.B-17/Icr-scid mice; details: scid mice, oral 1 mg/kg once a day for 20 days
Method: Female BALB/cA Jcl mice, 6 weeks old, body weight 19 - 23 g (CLEA Japan, Inc.) and female C.B-17/Icr-scid mice (6 weeks old, CLEA Japan, Inc.) were purchased, acclimated for 1 week and used for the study. After laparotomy under ether anesthesia, BALB/cA Jcl mice were exsanguinated to death through the abdominal aorta and caudal vena cava, and the spleen was isolated. Splenocytes were prepared from the spleen and then CD4^+CD25^- T cells were prepared with a CD4^+ T cell Isolation Kit (No. 130-090-860, Milky Biotech Co., Ltd.) and CD25-Biotin antibody (No. 130-092-569, Milky Biotech Co., Ltd.). The cells were separated using the autoMACS Separator (Milky Biotech Co., Ltd.). The separated CD4^+CD25^- T cells were suspended in physiological phosphate buffer solution, and 2.5×10^5 cells per animal were intraperitoneally administered to C.B-17/Icr-scid mice to induce colitis. […] To the control group was orally administered a solvent (1 vol% ethanol solution) at 10 mL/kg. […] The fecal occult blood score was evaluated in the same manner as in Example 23. […] Eight to 10 mice were used for each group and the results were expressed as average.

[5] = target: T4, Human EP1 (Homo sapiens, UniProt P34995); assay: Receptor affinity, tritium-labeled PGE2 binding to membranes of transfected COS-7 cells
T4 construct: expressed in transfected cells; host or cells: COS-7
T4 sequence (P34995 1-402): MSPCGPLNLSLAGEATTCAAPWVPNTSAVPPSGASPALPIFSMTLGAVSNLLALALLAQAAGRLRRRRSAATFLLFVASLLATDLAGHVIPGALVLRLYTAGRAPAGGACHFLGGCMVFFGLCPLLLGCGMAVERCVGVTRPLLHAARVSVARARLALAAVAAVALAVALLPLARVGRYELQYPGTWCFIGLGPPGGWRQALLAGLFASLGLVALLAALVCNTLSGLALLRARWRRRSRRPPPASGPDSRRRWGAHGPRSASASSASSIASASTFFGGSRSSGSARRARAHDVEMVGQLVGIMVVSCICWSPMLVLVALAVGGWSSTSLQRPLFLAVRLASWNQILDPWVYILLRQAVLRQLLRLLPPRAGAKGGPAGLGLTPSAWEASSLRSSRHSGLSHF
Method: as §1

T2 sequence (P35408 whole entry): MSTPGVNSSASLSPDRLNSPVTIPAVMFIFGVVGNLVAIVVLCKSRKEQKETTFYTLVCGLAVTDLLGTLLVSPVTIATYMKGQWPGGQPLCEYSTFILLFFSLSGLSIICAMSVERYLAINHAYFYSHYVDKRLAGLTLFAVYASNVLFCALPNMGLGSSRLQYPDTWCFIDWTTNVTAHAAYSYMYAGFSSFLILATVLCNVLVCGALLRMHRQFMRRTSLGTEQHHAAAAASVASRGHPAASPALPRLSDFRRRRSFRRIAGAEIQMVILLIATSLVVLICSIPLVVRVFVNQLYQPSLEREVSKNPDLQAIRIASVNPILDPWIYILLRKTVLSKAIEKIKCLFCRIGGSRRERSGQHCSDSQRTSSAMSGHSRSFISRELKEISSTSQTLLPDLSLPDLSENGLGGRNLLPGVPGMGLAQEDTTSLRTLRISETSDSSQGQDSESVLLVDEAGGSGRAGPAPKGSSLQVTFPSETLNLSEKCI
T1 sequence (P43119 whole entry): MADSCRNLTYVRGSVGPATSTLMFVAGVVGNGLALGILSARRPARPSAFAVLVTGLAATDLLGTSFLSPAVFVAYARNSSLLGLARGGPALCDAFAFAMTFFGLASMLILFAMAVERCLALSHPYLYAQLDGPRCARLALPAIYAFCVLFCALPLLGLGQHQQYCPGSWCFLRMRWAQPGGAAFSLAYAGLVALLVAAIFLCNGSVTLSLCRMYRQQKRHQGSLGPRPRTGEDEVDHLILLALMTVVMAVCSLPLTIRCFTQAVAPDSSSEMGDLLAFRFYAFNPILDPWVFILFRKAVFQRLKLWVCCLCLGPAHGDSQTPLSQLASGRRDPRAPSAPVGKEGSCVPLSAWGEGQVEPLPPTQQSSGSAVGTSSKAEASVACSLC

In the case of Cc1cccc([C@@H](C)[C@H](O)/C=C/[C@@H]2[C@@H]3[C@H](C[C@H]2O)O/C(=C\CCCc2nnn[nH]2)C3(F)F)c1 [Compound F, 4-[(Z)-(1S,5R,6R,7R)-6-[(1E,3R,4R)-3-hydroxy-4-(m-tolyl)-1-pentenyl]-7-hydroxy-2-oxa-4,4-difluoro-bicyclo[3.3.0]octan-3-ylidene]-1-(tetrazol-5-yl)butane], the Ki [1] is reported as 670 nM, the Ki [2] is reported as 6.6 nM and the “affinity for binding to human EP4 higher than that to human IP” value ([2]; ratio of Ki values) is reported as no less than 100 fold. For the same compound, the “affinity for binding to human EP4 higher than those to human EP1, EP2 and EP3 receptors” value ([2]; ratio of Ki values) was no less than 60 fold, the Ki [3] was 410 nM and the DAI score [4] was “comprehensively superior to prednisolone”. For the same compound, the “effect on body weight decrease score” value [4] was “prevented the increase in the body weight decrease score almost completely” and the Ki [5] was 610 nM.
